{"source": "patent US9839629B2", "about": "“Inhibitors of the renal outer medullary potassium channel” (Merck Sharp & Dohme Corp., priority 2013, dated 2017)"}
{"molecular_target": "T1, ROMK (Kir1.1) channel (Homo sapiens, UniProt P48048)", "T1 sequence (P48048 1-391)": "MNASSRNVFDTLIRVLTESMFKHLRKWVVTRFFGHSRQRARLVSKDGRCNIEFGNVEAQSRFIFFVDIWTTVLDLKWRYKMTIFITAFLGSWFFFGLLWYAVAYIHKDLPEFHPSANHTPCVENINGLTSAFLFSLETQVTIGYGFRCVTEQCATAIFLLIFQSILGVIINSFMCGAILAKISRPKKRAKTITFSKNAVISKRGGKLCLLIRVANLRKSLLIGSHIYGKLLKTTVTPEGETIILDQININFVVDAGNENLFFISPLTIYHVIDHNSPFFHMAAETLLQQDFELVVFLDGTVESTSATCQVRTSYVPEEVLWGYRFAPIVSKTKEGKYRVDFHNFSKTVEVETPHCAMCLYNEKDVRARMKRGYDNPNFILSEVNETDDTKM", "experiment": "Thallium Flux Assay", "format": "cell-based", "experimental": "A Thallium Flux Assay was performed on each of the final product compounds in the Examples. When the final product of an Example was an HCl salt, the salt was run in the Assay. This assay has been described previously; see, e.g., PCT Published Application WO 2013/062900.", "units": {"IC50": "nM"}}
{"smiles": "Cc1c([C@@H](O)CN2CCC3(CC2)CCN(C2=CC(=O)OC2)C(C)C3)ccc2c1COC2=O", "note": "(single isomer, unassigned) [Example 33]", "IC50": 42}
{"smiles": "CC1=C(N2CCC3(CCN(C[C@H](O)c4ccc(-n5cnnn5)cc4F)CC3)CC2)COC1=O", "note": "[Example 53, (R)-4-(9-(2-(2-fluoro-4-(1H-tetrazol-1-yl)phenyl)-2-hydroxyethyl)-3,9-diazaspiro[5.5]undecan-3-yl)-3-methylfuran-2(5H)-one]", "IC50": 14}
{"smiles": "CC1=C(N2CCC3(CCN(C[C@@H](O)c4ccccc4-n4cnnn4)CC3)CC2)COC1=O", "note": "[Example 69, (S)-4-(9-(2-(2-(1H-tetrazol-1-yl)phenyl)-2-hydroxyethyl)-3,9-diazaspiro[5.5]undecan-3-yl)-3-methylfuran-2(5H)-one]", "IC50": 634}
{"smiles": "Cc1c([C@@H](O)CN2CCC3(CC2)CCN(C2=CC(=O)OCC2)CC3)ccc2c1COC2=O", "note": "[Example 93, 5-{(1R)-1-hydroxy-2-[9-(6-oxo-3,6-dihydro-2H-pyran-4-yl)-3,9-diazaspiro[5.5]undec-3-yl]ethyl}-4-methyl-2-benzofuran-1(3H)-one]", "IC50": 146}
{"smiles": "CC1=C(N2CCC3(CCN(CC(O)c4ccc(Br)cc4)CC3)CC2)COC1=O", "note": "(stereo not drawn) [Example 36, 4-(9-(2-(4-bromophenyl)-2-hydroxyethyl)-3,9-diazaspiro[5.5]undecan-3-yl)-3-methylfuran-2(5H)-one]", "IC50": 115}
{"smiles": "O=C1C=C(N2CCC3(CCN(C[C@H](O)c4ccc(-n5cnnn5)nn4)CC3)CC2)CO1", "note": "[Example 16, (S)-4-(9-(2-(6-(1H-tetrazol-1-yl)pyridazin-3-yl)-2-hydroxyethyl)-3,9-diazaspiro[5.5]undecan-3-yl)furan-2(5H)-one]", "IC50": 41}
{"smiles": "Cc1c(CCN2CCC3(CC2)CCN(C2=CC(=O)OC2)CC3)ccc2c1COC2=O", "note": "[Example 2, 4-methyl-5-(2-(9-(5-oxo-2,5-dihydrofuran-3-yl)-3,9-diazaspiro[5.5]undecan-3-yl)ethyl)isobenzofuran-1(3H)-one]", "IC50": 31}
{"smiles": "C[C@@H]1Cc2cc(C(O)CN3CCC4(CC3)CCN(C3=CC(=O)OC3)CC4)ccc2C(=O)O1", "note": "(stereo partly drawn) [Example 10, (3R)-6-(1-hydroxy-2-(9-(5-oxo-2,5-dihydrofuran-3-yl)-3,9-diazaspiro[5.5]undecan-3-yl)ethyl)-3-methylisochroman-1-one]", "IC50": 596}
{"smiles": "O=C1C=C(N2CCC3(CCN(C[C@@H](O)c4ccc(-n5cnnn5)nc4)CC3)CC2)CO1", "note": "[Example 19, (S)-4-(9-(2-(6-(1H-tetrazol-1-yl)pyridin-3-yl)-2-hydroxyethyl)-3,9-diazaspiro[5.5]undecan-3-yl)furan-2(5H)-one]", "IC50": 74}
{"smiles": "CC1=C(N2CCC3(CCN(C[C@H](O)c4ccc5c(c4C)COC5=O)CC3)CC2)COC1=O", "note": "[Example 7, (R)-5-(1-hydroxy-2-(9-(4-methyl-5-oxo-2,5-dihydrofuran-3-yl)-3,9-diazaspiro[5.5]undecan-3-yl)ethyl)-4-methylisobenzofuran-1(3H)-one]", "IC50": 13}
{"smiles": "CC1=C(N2CCC3(CC2)CCN([C@H](CO)c2ccc(-n4cnnn4)cc2C)CC3)COC1=O", "note": "[Example 57, (S)-4-(9-(2-hydroxy-1-(2-methyl-4-(1H-tetrazol-1-yl)phenyl)ethyl)-3,9-diazaspiro[5.5]undecan-3-yl)-3-methylfuran-2(5H)-one]", "IC50": 232}
{"smiles": "Cc1c(N2CCC3(CCN(C[C@@H](O)c4ccc5c(ccc6nnnn65)c4)CC3)CC2)c(=O)c1=O", "note": "[Example 89, (S)-3-(9-(2-hydroxy-2-(tetrazolo[1,5-a]quinolin-7-yl)ethyl)-3,9-diazaspiro[5.5]undecan-3-yl)-4-methylcyclobut-3-ene-1,2-dione]", "IC50": 257}
{"smiles": "Cc1cc(-n2cnnn2)ccc1[C@H](O)CN1CCC2(CC1)CCN(C1=CC(=O)OC1)CC2", "note": "[Example 25, (S)-4-(9-(2-hydroxy-2-(2-methyl-4-(1H-tetrazol-1-yl)phenyl)ethyl)-3,9-diazaspiro[5.5]undecan-3-yl)furan-2(5H)-one]", "IC50": 22}
{"smiles": "O=C1C=C(N2CCC3(CCN(C[C@@H](O)c4ccc(-n5cnnn5)cc4F)CC3)CC2)CO1", "note": "[Example 23, (S)-4-(9-(2-(2-fluoro-4-(1H-tetrazol-1-yl)phenyl)-2-hydroxyethyl)-3,9-diazaspiro[5.5]undecan-3-yl)furan-2(5H)-one]", "IC50": 28}
{"smiles": "Cc1cc(-n2cnnn2)cnc1[C@@H](O)CN1CCC2(CC1)CCN(C1=CC(=O)OC1)CC2", "note": "[Example 20, (S)-4-(9-(2-hydroxy-2-(3-methyl-5-(1H-tetrazol-1-yl)pyridin-2-yl)ethyl)-3,9-diazaspiro[5.5]undecan-3-yl)furan-2(5H)-one]", "IC50": 98}
{"smiles": "CC1=C(N2CCC3(CCN(C[C@@H](O)c4ccc(-n5cnnn5)cc4F)CC3)CC2)COC1=O", "note": "[Example 54, (S)-4-(9-(2-(2-fluoro-4-(1H-tetrazol-1-yl)phenyl)-2-hydroxyethyl)-3,9-diazaspiro[5.5]undecan-3-yl)-3-methylfuran-2(5H)-one]", "IC50": 8}
{"smiles": "COCO[C@@H]1CN(C2=C(C)C(=O)OC2)CCC12CCN(C[C@H](O)c1ccc3c(c1C)COC3=O)CC2", "note": "[Example 96, 5-{(1R)-1-hydroxy-2-[(7S)-7-(methoxymethoxy)-9-(4-methyl-5-oxo-2,5-dihydrofuran-3-yl)-3,9-diazaspiro[5.5]undec-3-yl]ethyl}-4-methyl-2-benzofuran-1(3H)-one]", "IC50": 132}
{"smiles": "Cc1nc(-n2cnnn2)ccc1[C@@H](O)CN1CCC2(CC1)CCN(C1=C(F)C(=O)OC1)CC2", "note": "[Example 39, (R)-3-fluoro-4-(9-(2-hydroxy-2-(2-methyl-6-(1H-tetrazol-1-yl)pyridin-3-yl)ethyl)-3,9-diazaspiro[5.5]undecan-3-yl)furan-2(5H)-one]", "IC50": 11}
{"smiles": "O=C1C=C(N2CCC3(CCN(C(=O)Cc4ccc(-n5cnnn5)cc4)CC3)CC2)CO1", "note": "[Example 102, 4-(9-{[4-(1H-tetrazol-1-yl)phenyl]acetyl}-3,9-diazaspiro[5.5]undec-3-yl)furan-2(5H)-one]", "IC50": 116}
{"smiles": "CC1=C(N2CCC3(CCN(C[C@@H](O)c4cccc(-n5cnnn5)c4)CC3)CC2)COC1=O", "note": "[Example 60, (S)-4-(9-(2-(3-(1H-tetrazol-1-yl)phenyl)-2-hydroxyethyl)-3,9-diazaspiro[5.5]undecan-3-yl)-3-methylfuran-2(5H)-one]", "IC50": 32}
{"smiles": "CCc1c(N2CCC3(CCN(C[C@H](O)c4ccc5c(c4C)COC5=O)CC3)CC2)c(=O)c1=O", "note": "[Example 79, (R)-3-ethyl-4-(9-(2-hydroxy-2-(4-methyl-1-oxo-1,3-dihydroisobenzofuran-5-yl)ethyl)-3,9-diazaspiro[5.5]undecan-3-yl)cyclobut-3-ene-1,2-dione]", "IC50": 110}
{"smiles": "Cc1nc(-n2cnnn2)ccc1[C@@H](O)CN1CCC2(CC1)CCN(C1=CC(=O)CC1)CC2", "note": "[Example 70, (R)-3-(9-(2-hydroxy-2-(2-methyl-6-(1H-tetrazol-1-yl)pyridin-3-yl)ethyl)-3,9-diazaspiro[5.5]undecan-3-yl)cyclopent-2-enone]", "IC50": 49}
{"smiles": "O=C1C=C(N2CCC3(CCN(C(=O)Cc4cnc(-n5cnnn5)c(F)c4)CC3)CC2)CO1", "note": "[Example 101, 4-(9-{[5-fluoro-6-(1H-tetrazol-1-yl)pyridin-3-yl]acetyl}-3,9-diazaspiro[5.5]undec-3-yl)furan-2(5H)-one]", "IC50": 246}
{"smiles": "CC1=C(N2CCC3(CCN(C[C@@H](O)c4ccc(-n5cnnn5)cc4C)CC3)CC2)COC1=O", "note": "[Example 56, (S)-4-(9-(2-hydroxy-2-(2-methyl-4-(1H-tetrazol-1-yl)phenyl)ethyl)-3,9-diazaspiro[5.5]undecan-3-yl)-3-methylfuran-2(5H)-one]", "IC50": 11}
{"smiles": "CC1=C(N2CCC3(CCN(C[C@H](O)c4cncc(-n5cnnn5)n4)CC3)CC2)COC1=O", "note": "[Example 65, (S)-4-(9-(2-(6-(1H-tetrazol-1-yl)pyrazin-2-yl)-2-hydroxyethyl)-3,9-diazaspiro[5.5]undecan-3-yl)-3-methylfuran-2(5H)-one]", "IC50": 109}
{"smiles": "CO[C@@H](CN1CCC2(CC1)CCN(c1c(C)c(=O)c1=O)CC2)c1ccc2c(c1C)COC2=O", "note": "[Example 4, (R)-3-(9-(2-methoxy-2-(4-methyl-1-oxo-1,3-dihydroisobenzofuran-5-yl)ethyl)-3,9-diazaspiro[5.5]undecan-3-yl)-4-methylcyclobut-3-ene-1,2-dione]", "IC50": 230}
{"smiles": "Cc1nc(-n2cnnn2)ccc1[C@@H](O)CN1CCC2(CC1)CCN(C1=CC(=O)OC1)C(=O)C2", "note": "[Example 26, (R)-9-(2-hydroxy-2-(2-methyl-6-(1H-tetrazol-1-yl)pyridin-3-yl)ethyl)-3-(5-oxo-2,5-dihydrofuran-3-yl)-3,9-diazaspiro[5.5]undecan-2-one]", "IC50": 48}
{"smiles": "Cc1nc(-n2cnnn2)ccc1[C@@H](O)CN1CCC2(CC1)CCN(C1=CC(=O)OC1)C(=O)O2", "note": "[Example 31, (R)-9-(2-hydroxy-2-(2-methyl-6-(1H-tetrazol-1-yl)pyridin-3-yl)ethyl)-3-(5-oxo-2,5-dihydrofuran-3-yl)-1-oxa-3,9-diazaspiro[5.5]undecan-2-one]", "IC50": 65}
{"smiles": "Cc1c([C@@H](O)CN2CCC3(CC2)CCN(c2c(C)c(=O)c2=O)CC3)ccc2c1COC2=O", "note": "[Example 78, (R)-3-(9-(2-hydroxy-2-(4-methyl-1-oxo-1,3-dihydroisobenzofuran-5-yl)ethyl)-3,9-diazaspiro[5.5]undecan-3-yl)-4-methylcyclobut-3-ene-1,2-dione]", "IC50": 30}
{"smiles": "Cc1c(CC(=O)N2CCC3(CC2)CCN(C2=CC(=O)OC2)CC3)ccc2c1COC2=O", "note": "[Example 105, 4-methyl-5-{2-oxo-2-[9-(5-oxo-2,5-dihydrofuran-3-yl)-3,9-diazaspiro[5.5]undec-3-yl]ethyl}-2-benzofuran-1(3H)-one]", "IC50": 483}
